From PubChem BioAssay (NCI) come the findings set out here.

Where “and” joins values, the source holds several entries; their conditions need not be identical. Equal entries are not always repeated.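 Tested at 5 concentrations; 48 h exposure; 96-well plates; endpoints linearly interpolated, else capped at highest concentration. The concentration for 50% growth inhibition is given as GI50. TGI: total growth inhibition.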 A value given as a limit tells only on which side of the number the result lay.

Common to all, as to assay: DTP human tumour cell line panel, 48 h
Test [1] has as its system HCT-116 colon.
For test [2], the system named is IGROV1 ovarian.
Test [3] deals with MOLT-4 leukemia.
Test [4] relates to NCI-H522 lung.
In test [5] the test system is OVCAR-3 ovarian.
Test [6] has as its system SF-268 CNS.
The subject of test [7] is SK-MEL-2 melanoma.
In test [8] the test system is OVCAR-5 ovarian.
Test [9] deals with DU-145 prostate.
Test [10] relates to MCF7 breast.

For the molecule `CC(C)CCCC(C)[C@H]1CCC2[C@@H]3CCC4Nc5nocc5C[C@]4(C)C3CC[C@@]21C` (some centres undefined), the concentration for total growth inhibition (TGI) was determined as 32.4 µM in test [1]; 57 µM in test [2]; 46.5 µM in [3]; 14.5 µM in [4]; 20.5 µM in test [5]; 36.8 µM in test [6]. Besides, the TGI in test [7] is 38.7 µM.
As to `COCC(O)Cn1ccnc1[N+](=O)[O-]` (centres undefined), the TGI in test [1], in [3], in test [4], in test [5], in test [8] and in [6] was more than 100 µM throughout. In test [7], the TGI is more than 100 µM.
`Cc1cc2c(C)nn(Cc3ccccc3)c2c(C(N)=O)c1C`: the TGI in [1], in [2], in test [3], in test [4], in test [5] and in test [8] was more than 100 µM in each case. Also, the TGI in test [6] and in test [7] was more than 100 µM in each case.
With `c1ccc(CN2CCC3(CC2)SSC2(CCN(Cc4ccccc4)CC2)S3)cc1`, the TGI in test [9], in [1], in test [2], in [3], in test [5] and in test [8] was more than 100 µM in each case. This molecule also showed a TGI in test [7] of more than 100 µM.
As to `COc1ccc(-c2nc(/C=N/Nc3cc(C)nc4ccc(Cl)cc34)c(C)o2)cc1`, the GI50 in test [9] was 1.75 µM; in test [1] it was 1.82 µM; in test [2], 1.76 µM; in [5] it was 1.81 µM; in test [8] it was 1.68 µM; in test [7] it was 10.9 µM. For the same molecule, the TGI in test [9] turned out to be 3.25 µM; in test [1], 3.27 µM; in test [2], 3.36 µM; in [5], 3.27 µM; in test [8] it was 3.07 µM; in test [7], 24.1 µM.
`COC1OC(CBr)C(OC(=O)c2ccccc2)C(O)C1Br` (centres undefined): the TGI was more than 100 µM in test [1]; more than 10 µM in test [2]; more than 100 µM in test [3]; more than 100 µM in [4]; more than 100 µM in test [5]; more than 100 µM in test [8]. This molecule came in with a TGI in test [6] of more than 100 µM.
Take `O=C1Nc2nc3ccccc3n2N=C2CCCC12` (centres undefined): the TGI in test [1], in test [2], in [3], in test [5], in test [8] and in [6] was more than 100 µM throughout. For the same molecule, the TGI in test [7] was more than 100 µM.
As to `C#CC1(O)C(COP(=O)(O)OC(COCCCCCCCCCCCCCCCCCC)COP(=O)(O)OCC2OC(n3cc(F)c(=O)[nH]c3=O)CC2O)OC(n2ccc(N)nc2=O)C1O` (centres undefined), the GI50 is 0.274 µM and 0.0722 µM in test [9]; < 0.024 µM and 0.142 µM in [1]; 0.135 µM in test [2]; < 0.0377 µM and 0.0758 µM in [4]; 1.04 µM and 2.99 µM in test [8]; < 0.049 µM and 0.432 µM in test [7]. The concentration for total growth inhibition (TGI) was more than 100 µM in [9]; more than 100 µM in test [1]; 2.59 µM and 4.59 µM in test [2]; more than 100 µM in [3]; 0.223 µM and 1.52 µM in test [4]; > 29.1 µM and 23.4 µM in [5]. Also, the TGI in test [8] was > 46.2 µM and 68.6 µM; in test [6] it was 15.9 µM and 15.1 µM; in test [7] it was 1.88 µM and 3.48 µM.
In the case of `C[C@]12CCC(=O)C=C1CC[C@@H]1C2CC[C@]2(C)Nc3c(cnn3-c3ccccc3)CC12` (some centres undefined), the TGI is more than 100 µM in test [1]; more than 100 µM in test [2]; more than 100 µM in test [3]; more than 10 µM in test [5]; more than 100 µM in [8]; more than 100 µM in test [7].
In the case of `N.N.N.N.N.[Cl-].[Co+3].c1ccc(-c2nn[n-]n2)cc1`, the GI50 in [1], in test [2], in test [3], in test [5], in [8] and in [6] was more than 100 µM each time. The GI50 in test [7] was more than 100 µM. For the same molecule, the TGI in test [1], in test [2], in test [3], in [5], in test [8] and in test [6] was more than 100 µM throughout. For the same molecule, the TGI in [7] is more than 100 µM.
Take `O=c1[nH]nc2ccccc2c1Cc1ccccc1`: the TGI in [1], in [2], in test [3], in test [5], in test [8] and in test [6] was more than 100 µM throughout. Further, in [7], the TGI was more than 100 µM.
Take `C1COCCN1.C1COCCN1.NC1CCCCC1N.[Cl-].[Pt+2]` (centres undefined): the GI50 is more than 100 µM in test [1]; more than 100 µM in test [2]; more than 100 µM in [3]; 46.5 µM in [4]; more than 100 µM in [5]; more than 100 µM in test [8]. For the same molecule, the GI50 in test [6] and in [7] was more than 100 µM each time. Also, the TGI in [1], in test [2], in test [3], in test [4], in test [5] and in [8] was more than 100 µM throughout. Besides, the TGI in test [6] and in [7] was more than 100 µM throughout.
Regarding `COc1cccc(-c2nn(-c3ccccc3)cc2-c2ccnc(NCCCNC(=O)Nc3ccc(Cl)c(Cl)c3)c2)c1`, the GI50 in [9] is 5.47 µM; in test [1], 2.33 µM; in test [2], 4.24 µM; in [10] it was 1.94 µM; in [3] it was 1.95 µM; in test [5] it was 4.57 µM. Further, the GI50 in test [8] was 3.53 µM; in [6] it was 3.32 µM; in test [7], 1.92 µM. In addition, the TGI amounted to 23 µM in test [9]; 5.75 µM in test [1]; 19.4 µM in test [2]; 3.71 µM in test [10]; 5.85 µM in test [3]; 17.3 µM in test [5]. For the same molecule, the TGI in test [8] was 25.4 µM; in test [6], 13.9 µM; in [7], 4.07 µM.
As for `CCN(CC)CCOc1ccc(CCc2cc(OC)c(OC)c(OC)c2)cc1`, the TGI in test [1] was more than 100 µM; in [2] it was more than 100 µM; in test [3] it was 85.2 µM; in [4], more than 100 µM; in [5], more than 100 µM; in test [8] it was 65.3 µM. Moreover, the TGI in test [6] is more than 100 µM.
Take `Cc1ccc(SSc2ccc(C)cc2C(=O)O)c(C(=O)O)c1`: the TGI in [3], in test [4], in [8], in test [6] and in test [7] was more than 100 µM in each case.
With `O=C1NC2(CCCCCC2)C2CCCCCCC12O` (centres undefined), the TGI in test [1], in [2], in test [3], in test [4], in test [5] and in [8] was more than 100 µM each time. Moreover, the total growth inhibition concentration (TGI) in test [6] and in test [7] was more than 100 µM in each case.
Consider `Cc1oc2c(C)c3oc(=O)cc(C)c3cc2c1CN1C(=O)C2OCCOCCOCCOCCOCCO[C@H]2C1=O` (some centres undefined), for which the TGI in [1], in [2], in test [3], in test [4], in [5] and in [8] was more than 100 µM throughout. In test [6], this molecule had a total growth inhibition concentration (TGI) of more than 100 µM.
For `CCOC(=O)c1c2c(n(Cc3ccc(Cl)cc3Cl)c1C)-c1nc[nH]c1C(=O)C2=O`, the GI50 is 11.8 µM in test [9]; 2.16 µM in test [1]; 11.2 µM in [2]; 1.8 µM in test [3]; 10.3 µM in test [4]; 2.86 µM in test [5]. Also, the GI50 in test [6] was 7.89 µM; in test [7], 19.5 µM. For the same molecule, the TGI in test [9] was determined as 24.1 µM; in [1], 5.66 µM; in [2] it was 24 µM; in [3], 3.97 µM; in test [4], 23.1 µM; in [5], 10.6 µM. In addition, the total growth inhibition concentration (TGI) in test [6] is 20.4 µM; in test [7], 41.2 µM.
With `C1=CC=C2NCCCCCCCNC3=CC=CC=CC3=NCCCCCCCN=C2C=C1`, the TGI in test [1], in test [3], in [4], in [8], in test [6] and in [7] was more than 100 µM throughout.
For `O=C(O)c1cc2ccc3ccccc3c2oc1=O`, the TGI in test [1], in test [2], in [10], in test [3], in test [4] and in [5] was more than 100 µM each time. Moreover, the TGI in test [8], in test [6] and in [7] was more than 100 µM each time.
Regarding `O=C1c2cccc(NCCN=Cc3cc([N+](=O)[O-])ccc3O)c2C(=O)c2c(NCCN=Cc3cc([N+](=O)[O-])ccc3O)cccc21`, the GI50 in test [9] is 3.94 µM; in test [1], 1.28 µM; in test [2], 2.62 µM; in [3], 0.648 µM; in test [4], 4.07 µM; in test [5], 4.79 µM. The GI50 in test [8] was 31.6 µM; in test [6] it was 2.42 µM; in test [7], 20.5 µM. Moreover, the concentration for total growth inhibition (TGI) in test [9] was 58.1 µM; in test [1], 81.5 µM; in test [2] it was more than 100 µM; in [3] it was 16.7 µM; in test [4], more than 100 µM; in test [5], 72 µM. In addition, the results for the TGI in [8], in [6] and in test [7] were more than 100 µM, more than 100 µM and 96.4 µM, respectively.
As to `O=C1C2C3C=C4c5ccccc5N(c5ccccc5)C4(C2C(=O)N1c1ccc(Cl)cc1)[C@H]1C(=O)N(c2ccc(Cl)cc2)C(=O)[C@@H]31` (some centres undefined), the TGI in [1], in [2], in test [3], in test [4], in test [5] and in test [8] was more than 100 µM each time. Further, the TGI in test [7] was more than 100 µM.
Regarding `O=C(CC(=O)C1=CNc2ccccc2S1)C(=O)Nc1ccc(Cl)cc1`, the TGI in test [1], in [2], in [3], in test [4], in test [5] and in test [8] was more than 50 µM each time. For the same molecule, the TGI in [6] and in test [7] was more than 50 µM throughout.
Take `COc1ccc2c(c1)[n+]([O-])c(-c1ccc(OC)c(OC)c1)c(N)[n+]2[O-]`: the concentration for total growth inhibition (TGI) in test [2] is more than 100 µM; in test [3], more than 100 µM; in test [4], 31.5 µM; in test [5], more than 100 µM; in test [8], more than 100 µM; in test [6] it was more than 100 µM. Also, in test [7], the TGI was more than 100 µM.
For `Cc1cc(NCCCCCCNc2cc(C)nc3cc(N(C)C)ccc23)c2ccc(N(C)C)cc2n1`, the TGI in test [1], in test [3], in [4], in test [5], in test [8] and in test [6] was more than 100 µM throughout. The molecule also registered a TGI in test [7] of more than 100 µM.
As for `OCC1C(/C=C/c2ccoc2)ON2CCCC12` (centres undefined), the TGI in test [4], in test [8], in test [6] and in [7] was more than 100 µM throughout.
Turning to `COC1/C=C/C(C)C(C(C)C(OC)C(C)CCC(=O)C(C)C(C/C=C/N(C)C=O)OC)OC(=O)/C=C/C=C(\C)CC(OC)CC2=CC(=O)O[C@H](C2)C(C)C(OC)CC(OC)/C=C/C(C)C(OC)C1` (some centres undefined), the GI50 is 0.123 µM in [9]; 0.0066 µM in [1]; 0.0159 µM in test [2]; 0.164 µM in test [3]; 0.0127 µM in test [5]; 0.119 µM in test [8]. Besides, in [6], the GI50 was 0.04 µM. For the same molecule, the TGI in test [1] was 0.115 µM and 0.0148 µM; in test [2], 0.053 µM and 0.0341 µM; in test [3] it was 0.11 µM; in test [5], 0.0307 µM; in test [8], 0.714 µM; in test [6], 0.485 µM and 0.612 µM. In [7], this molecule registered a TGI of 0.0399 µM.

As a reminder, the TGI is the concentration at which net growth stops. Read a low TGI as more potent growth arrest. For orientation: GI50 means the concentration giving 50% growth inhibition.
